Assay results reported in PubChem BioAssay AID1963971 (Molecular Pharmacology Branch, DTP, NCI, 2024).
“And” between values parts separate entries of the source, which are not always exact repeats. Equal entries are not always repeated.

Test system: 953936-095-R-J2-PDC spheroids with HUVEC/MSC, viability
Experiment: Anticancer human tumor 953936-095-R-J2-PDC patient-derived cervical squamous cell carcinoma cell line growth inhibition [PI3K]
Settings: for viability, T/C: stronger effect = lower value
Excerpt: Combinatorial screen of targeted agents with the PI3K inhibitors inavolisib, alpelisib, duvelisib, and copanlisib in multi-cell type tumor spheroids
A high-throughput screen of multi-cell type tumor spheroids was designed to identify active combinations of targeted small molecules and PI3K pathway inhibitors. Complex spheroids include a stromal component modeled by human endothelial cells (HUVEC) and fibroblasts modeled by human mesenchymal stem cells (MSCs). The concentration ranges selected for each drug and investigational agent were based upon clinically achievable concentrations if the clinical Cmax of the agent was known.
Compounds. The drugs and investigational agents: inavolisib (NSC800729), alpelisib (NSC765974), duvelisib (NSC772469), copanlisib (NSC816437), ipatasertib (NSC767898), afuresertib (NSC778305), talazoparib (NSC767125), sapanisertib (NSC764658), selumetinib (NSC741078), tovorafenib (DAY101, NSC766906), vemurafenib (NSC761431), ravoxertinib (NSC781343), sotorasib (NSC818433), MRTX1133 (NSC 836407), abemaciclib (NSC 768073), palbociclib (NSC758247), venetoclax (NSC 766270), SY5609 (NSC837396), enzalutamide (NSC755605), and darolutamide (NSC825331), were obtained from the National Cancer Institute (NCI) Developmental Therapeutics Program Chemical Repository. The FDA-approved anticancer drug set is available from the NCI Developmental Therapeutics Program. […] The stock solutions were prepared in dimethyl sulfoxide (DMSO, Sigma-Aldrich, St. Louis, MO, cat. D2650) at 800-fold the tested concentration and stored at -70 degrees C prior to their use. All drugs and investigational agents were tested over a range starting from a high concentration at or near the clinical Cmax and decreasing in half-log increments. If the clinical Cmax for an agent had not been determined, the highest concentration tested was 10 microM.
Cell Culture. All cells were maintained in an incubator at 37 degrees C and 5% CO2 with 95% humidity. The PDC lines were cultured according to standard operating procedures established by the NCI PDMR (https://pdmr.cancer.gov/sops/default.htm). All PDCs were thawed and cultured in Matrigel-coated flasks prepared with a working solution of 1X Ham's F-12 nutrient mix, without supplementation (Invitrogen, Waltham, MA, cat. 11765054), 100 U/mL penicillin-streptomycin (Invitrogen, cat. 15140122), and 2.5% Matrigel (Corning Inc., Corning, NY, cat. 354248) for the first three passages. The 354836-022-R-J1-PDC, 475296-252-R-J1-PDC, and 997726-040-R-J2-PDC lines were cultured in 6A media, which includes advanced DMEM/F-12 (Thermo Fisher Scientific, cat. 12634028), 10 mM HEPES (Thermo Fisher Scientific, cat. 15630080), 1X GlutaMAX supplement (Thermo Fisher Scientific, cat. 35050061), 0.1 mg/mL primocin (InvivoGen, San Diego, CA, cat. ant-pm-2), 10% defined fetal bovine serum, heat inactivated (HyClone Laboratories Inc., Logan, UT, cat. SH30070.03HI), 50% L-WRN conditioned media (ATCC, cat. CRL-3276), 1.25 mM N-Acetyl-L-cysteine (Sigma-Aldrich, cat. A9165), 10 mM nicotinamide (Sigma-Aldrich, cat. N0636), 1X B-27 supplement (Thermo Fisher Scientific, cat. 17504044), 1X N-2 supplement (Thermo Fisher Scientific, cat. 17502048), and 10 microM Y-27632 dihydrochloride (Tocris Bioscience, Bristol, United Kingdom, cat. 1254). The 624824-186-R-J2-PDC line was cultured in 6C/Colon 1B media, which includes all 6A media components plus 50 ng/mL human EGF recombinant protein (Thermo Fisher Scientific, cat. PHG0311). […]
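Also: spheroids exposed to compounds for seven days before read-out.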

## Cn1nccc1Nc1nccc(-c2ccn(C(CO)c3ccc(Cl)c(F)c3)c(=O)c2)n1 (stereo not drawn) + Cc1nc(NC(=O)N2CCCC2C(N)=O)sc1-c1ccnc(C(C)(C)C(F)(F)F)c1
Curve of first compound, second compound 0.0316 µM
  IC50: > 10 µM
Curve of first compound, second compound 0.1 µM
  IC50: > 10 µM
Curve of first compound, second compound 0.316 µM
  IC50: > 10 µM
Curve of first compound, second compound 1 µM
  IC50: < 0.0316 µM
Curve of first compound, second compound 3.16 µM
  IC50: < 0.0316 µM
Curve of first compound, second compound 10 µM
  IC50: < 0.0316 µM
Second compound 0.0316 µM, first compound 0.0316 µM
  viability, T/C: 77.7%
Second compound 0.0316 µM, first compound 0.1 µM
  viability, T/C: 89.9%
Second compound 0.0316 µM, first compound 0.316 µM
  viability, T/C: 78.3%
Second compound 0.0316 µM, first compound 1 µM
  viability, T/C: 69.5%
Second compound 0.0316 µM, first compound 3.16 µM
  viability, T/C: 72.9%
Second compound 0.0316 µM, first compound 10 µM
  viability, T/C: 67.1%
Second compound 0.1 µM, first compound 0.0316 µM
  viability, T/C: 77.1%
Second compound 0.1 µM, first compound 0.1 µM
  viability, T/C: 76.3%
Second compound 0.1 µM, first compound 0.316 µM
  viability, T/C: 66.7%
Second compound 0.1 µM, first compound 1 µM
  viability, T/C: 74.3%
Second compound 0.1 µM, first compound 3.16 µM
  viability, T/C: 63%
Second compound 0.1 µM, first compound 10 µM
  viability, T/C: 68.5%
Second compound 0.316 µM, first compound 0.0316 µM
  viability, T/C: 63.3%
Second compound 0.316 µM, first compound 0.1 µM
  viability, T/C: 55.9%
Second compound 0.316 µM, first compound 0.316 µM
  viability, T/C: 52.6%
Second compound 0.316 µM, first compound 1 µM
  viability, T/C: 56.4%
Second compound 0.316 µM, first compound 3.16 µM
  viability, T/C: 57.7%
Second compound 0.316 µM, first compound 10 µM
  viability, T/C: 52.6%
Second compound 1 µM, first compound 0.0316 µM
  viability, T/C: 45.3%
Second compound 1 µM, first compound 0.1 µM
  viability, T/C: 39.7%
Second compound 1 µM, first compound 0.316 µM
  viability, T/C: 38.8%
Second compound 1 µM, first compound 1 µM
  viability, T/C: 37.6%
Second compound 1 µM, first compound 3.16 µM
  viability, T/C: 40.1%
Second compound 1 µM, first compound 10 µM
  viability, T/C: 31.9%
Second compound 3.16 µM, first compound 0.0316 µM
  viability, T/C: 23.5%
Second compound 3.16 µM, first compound 0.1 µM
  viability, T/C: 23.9%
Second compound 3.16 µM, first compound 0.316 µM
  viability, T/C: 21.1%
Second compound 3.16 µM, first compound 1 µM
  viability, T/C: 17.2%
Second compound 3.16 µM, first compound 3.16 µM
  viability, T/C: 15.2%
Second compound 3.16 µM, first compound 10 µM
  viability, T/C: 10.8%
Second compound 10 µM, first compound 0.0316 µM
  viability, T/C: 11.4%
Second compound 10 µM, first compound 0.1 µM
  viability, T/C: 9.37%
Second compound 10 µM, first compound 0.316 µM
  viability, T/C: 6.34%
Second compound 10 µM, first compound 1 µM
  viability, T/C: 4.57%
Second compound 10 µM, first compound 3.16 µM
  viability, T/C: 3.58%
Second compound 10 µM, first compound 10 µM
  viability, T/C: 1.86%

## CC(Cn1ccc(-c2ccc(C#N)c(Cl)c2)n1)NC(=O)c1cc(C(C)O)[nH]n1 (stereo not drawn)
Compound 0.0316 µM
  viability, T/C: 91.2% [middle of 4 runs]
Compound 0.1 µM
  viability, T/C: 96.5% [middle of 4 runs]
Compound 0.316 µM
  viability, T/C: 97.1% [middle of 4 runs]
Compound 1 µM
  viability, T/C: 108% and 101% (2×) and 96.8%
Compound 10 µM
  viability, T/C: 99.4% (2×) and 105% and 106%
Curve of compound
  IC50: > 10 µM
